Measurements from US20050063998A1, “Oral solution containing galantamine and a sweetening agent” (priority 1999, published 2005).
Entries after “also recorded” stand apart in the source; their conditions may differ. Structures can show the parent of a compound that is named as a salt.

Experiment: Stability of a galantamine hydrobromide aqueous solution as a function of pH (HPLC, degradation products)
Format: physicochemical
Settings: 10 mg/ml aqueous solution; neutral (water pH 5.2); 80° C.; storage 24 hours
Experimental: (c) Stability of a Galantamine Hydrobromide Aqueous Solution as a Function of pH
A galantamine hydrobromide 10 mg/ml aqueous solution was stored in acid, neutral and alkaline conditions at 80° C. for 1 up to 24 hours. After storage, the solutions were analyzed using HPLC for the presence of degradation products.

For `COc1ccc2c3c1O[C@H]1C[C@@H](O)C=C[C@@]31CCN(C)C2` [Galantamine hydrobromide, [4aS-(4aα, 6β, 8aR*)]-4a, 5,9,10,11,12-hexa-hydro-3-methoxy-11-methyl-6H-benzofuro[3a,3,2-ef][2]benzazepin-6-ol], the Degradation compounds was “remained stable; also recorded: No degradation detected”.
